Literature values in patent publication US20210386741A1, “FORMULATIONS OF IBRUTINIB” (Zhuhai Beihai Biotech Co., Ltd., priority 2016, published 2021).

Assays:
[1] = oral
[2] = test system: human plasma protein; conditions: in vitro, no concentration dependence in the range of 50 to 1000 ng/mL

Absolute bioavailability ([1]; fasted condition (n=8), 90% CI=2.1−3.9): 2.9% | change of absolute bioavailability when combined with a meal ([1]; with a meal versus fasted): doubled | increase of AUC on administration with food ([1]; with food compared with after overnight fasting): approximately 2 fold | reversible binding to human plasma protein [2]: 97.3% | solubility in water: practically insoluble in water
SMILES: C=CC(=O)N1CCC[C@@H](n2nc(-c3ccc(Oc4ccccc4)cc3)c3c(N)ncnc32)C1 [ibrutinib]
